Where “and” joins values, the source holds several entries; their conditions need not be identical. Equal entries are not always repeated. Where two headings read alike, the source gives them in different places.
Key:
A2780-ADR cells = experiment: MTT viability assay, reversal of MDR in P-gp overexpressing A2780-ADR cells; format: cell-based, human; conditions: for Reversal of MDR in A2780-ADR cells: 15 µM compound with or without 500 nM PTX, 48 h, MTT
Procedure: (§1) The chemotherapeutic sensitive DU145 human prostate cancer cells and the multidrug resistant sub-line, DU145-TXR, were generous gifts from Dr. Evan Keller (University of Michigan, Ann Arbor, MI). The MDR, P-gp overexpressing DU145-TXR cells were maintained under positive selection pressure by supplementing complete medium with 10 nM paclitaxel (Acros Organics, NJ). In addition to the aforementioned cell lines, the chemotherapeutic sensitive A2780 ovarian cancer cells (93112519, Sigma) and the multidrug resistant A2780-ADR (93112520, Sigma) were maintained in complete RPMI media consisting of RPMI-1640 with L-glutamine, 10% fetal bovine serum (FBS; Corning), 100 U/mL penicillin and 100 μg/mL streptomycin in a humidified incubator at 37 °C and 5% CO2. The MDR, P-gp overexpressing A2780-ADR cell line was maintained under positive selection pressure by supplementing complete medium with 100 nM doxorubicin (Fisher Scientific, NJ). The non-cancerous HFL1 (human lung fibroblast) cell line cell line was a generous gift from Dr. Robert Harrod (Southern Methodist University, Dallas, TX) and was maintained in complete F12K media consisting of F12K with 10% fetal bovine serum, 100 U/mL penicillin, and 100 µg/mL streptomycin (Gibco). Flasks and 96 well plates that were used with the non-cancerous line HFL1 were pre-treated with 0.1 mg/ml Collagen Type 1 (Gibco) and rinsed with PBS (Fisher).
(§2) Culture of the DU145, DU145-TXR, and HFL1 cell lines was performed as described in [8]. Culture of the A2780 and A2780-ADR cell lines was performed as described in [9]. MTT assays were performed as described in [8] with minor modifications. LC-MS/MS accumulation assays were performed as described in {Nanayakkara, 2018 #173} [9] with some modifications. […] The inhibitor concentration was lowered to 15 µM here, as the goal of the study was to identify compounds that were effective in reversing MDR at low concentrations, and to determine if the expanded virtual-assisted methods improved on our first-draft attempt. Compounds 56–98 were pre-screened using Resazurin cell viability assays: cells were incubated with 15 µM compound with or without 500 nM PTX for 48 hours, after which cell survival was assessed similar to [39]. Data represent the mean of two separate experiments, with n = 3 samples per experiment (n = 6 total) (S4 Table). The top performing compounds from this initial screen were re-tested with MTT viability assays against DU145-TXR cells, as described below.
(§3) MTT assays measure the reduction of yellow, water soluble 3-(4,5-dimethylthiazol-2-yl)-2,5-diphenyltetrazolium bromide (MTT) to blue, insoluble formazan crystals by cellular reductase processes in living cells. Cells were trypsinized from monolayers and seeded in complete medium in 96 well plates. Cancerous cell lines (DU145, DU145-TXR, A2780, A2780-ADR) were seeded at 3,000 cells per well in complete RPMI medium. The non-cancerous HFL1 line was seeded at 4,000 cells per well in complete F12K medium, in collagen-treated plates (Collagen Type 1, Gibco). Cells were incubated with experimental compounds for 48 hours at 37 °C and 5% CO2 in a humidified incubator. At 48 hours, MTT was added (20 µL/well of 5 mg/mL MTT in PBS) to each well. After incubation for 4 hours, the media was removed, and the formazan crystals were dissolved in 100 µL DMSO per well. Plates containing the semi-adherent A2780 or A2780-ADR lines were spun at 1400 rpm for 3 minutes prior to aspiration of media, and the addition of DMSO. Plates were shaken for 10 minutes at 500 rpm on an Orbital shaker (LabDoctor from MidSci, St Louis, MO). The absorbance was measured at 570 nm using a Bio-Tek Cytation 5 (Bio-Tek, Winooski, VT). The measured absorbance value was correlated with the number of metabolically active cells in that well, corrected for absorbance of media. […]

P-gp = molecular target: T1, P-gp (Homo sapiens, UniProt P08183); experiment: Top Hit classification from combined in vitro criteria; conditions: reverse MDR, do not increase PTX toxicity in chemo-sensitive cancer cells, non-toxic to noncancerous cells, not P-gp substrates
T1 construct: The MDR, P-gp overexpressing DU145-TXR cells were maintained under positive selection pressure; endogenous in cells; host or cells: DU145-TXR (paclitaxel-resistant sub-line of DU145 human prostate cancer cells)

A2780 cells = experiment: MTT viability assay, parental A2780 cells, with or without PTX; format: cell-based, human; conditions: for Mean % Survival / % Survival (individual sample): A2780 cells; for % Survival (individual sample): single samples; for Increase of PTX toxicity against parental A2780 cells: 15 µM compound with or without 500 nM PTX, 48 h, MTT
Procedure: as §1, §2, §3

[1] = A2780-ADR cells, 15 µM compound + 500 nM PTX, mean of 12 samples
[2] = A2780-ADR cells, 15 µM compound alone, single samples (trials 1-3, samples 1-4)
[3] = Homo sapiens, A2780 ADR, A2780-ADR cells, 15 µM compound alone, mean of 12 samples, read-out: Mean % Survival
[4] = Homo sapiens, A2780 ADR, A2780-ADR cells, 15 µM compound alone, single samples (trials 1-3, samples 1-4), read-out: % Survival (individual sample)
[5] = 15 µM compound + 500 nM PTX, mean of 8 or 12 samples
[6] = Homo sapiens, A2780, A2780 cells, 15 µM compound alone, mean of 8 or 12 samples, read-out: Mean % Survival
[7] = A2780-ADR cells, 15 µM compound + 500 nM PTX, single samples (trials 1-3, samples 1-4)
[8] = A2780-ADR cells, 1 µM compound + 500 nM PTX, mean of 12 samples
[9] = 1 µM compound + 500 nM PTX, mean of 12 samples

T1 sequence (P08183 whole entry): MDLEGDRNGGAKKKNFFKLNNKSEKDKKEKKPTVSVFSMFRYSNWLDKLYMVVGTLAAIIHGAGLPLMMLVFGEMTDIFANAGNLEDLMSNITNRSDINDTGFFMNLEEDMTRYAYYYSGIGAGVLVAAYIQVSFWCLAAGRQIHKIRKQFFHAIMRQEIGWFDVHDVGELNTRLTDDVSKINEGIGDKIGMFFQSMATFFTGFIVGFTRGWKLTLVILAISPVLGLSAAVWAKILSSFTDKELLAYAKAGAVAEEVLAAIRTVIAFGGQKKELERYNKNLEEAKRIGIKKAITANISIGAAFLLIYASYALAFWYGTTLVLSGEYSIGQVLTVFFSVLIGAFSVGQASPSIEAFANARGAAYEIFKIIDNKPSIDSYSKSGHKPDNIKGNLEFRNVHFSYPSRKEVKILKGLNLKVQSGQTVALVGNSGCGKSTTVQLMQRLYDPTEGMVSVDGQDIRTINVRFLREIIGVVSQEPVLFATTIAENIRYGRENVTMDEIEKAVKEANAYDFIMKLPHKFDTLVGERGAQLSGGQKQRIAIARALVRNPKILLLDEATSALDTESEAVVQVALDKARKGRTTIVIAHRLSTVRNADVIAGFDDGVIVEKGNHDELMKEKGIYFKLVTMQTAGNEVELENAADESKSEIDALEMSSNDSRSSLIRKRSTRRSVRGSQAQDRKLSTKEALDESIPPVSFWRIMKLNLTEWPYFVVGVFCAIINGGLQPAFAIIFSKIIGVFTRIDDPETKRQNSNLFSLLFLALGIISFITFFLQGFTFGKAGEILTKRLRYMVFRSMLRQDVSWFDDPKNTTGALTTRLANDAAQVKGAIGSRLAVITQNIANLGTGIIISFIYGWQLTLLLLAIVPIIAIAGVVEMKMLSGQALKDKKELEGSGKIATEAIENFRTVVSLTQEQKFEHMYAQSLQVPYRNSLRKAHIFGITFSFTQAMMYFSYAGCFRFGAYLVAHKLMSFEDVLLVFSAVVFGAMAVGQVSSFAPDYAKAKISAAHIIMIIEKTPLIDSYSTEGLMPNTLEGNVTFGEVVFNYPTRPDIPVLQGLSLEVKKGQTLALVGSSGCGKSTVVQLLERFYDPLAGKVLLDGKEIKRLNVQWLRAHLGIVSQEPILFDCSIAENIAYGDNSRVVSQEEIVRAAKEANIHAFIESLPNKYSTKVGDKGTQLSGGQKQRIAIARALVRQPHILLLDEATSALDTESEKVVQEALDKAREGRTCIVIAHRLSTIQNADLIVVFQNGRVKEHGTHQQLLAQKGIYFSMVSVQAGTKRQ

Compound | Mean % Survival (A2780-ADR cells; [1]) | % Survival (individual sample) (A2780-ADR cells; [2]) | viability at 15 µM (A2780-ADR cells; [3]) | Top Hit (P-gp) | Mean % Survival (A2780 cells; [5]) | % Survival (individual sample) (A2780 cells; 15 µM compound + 500 nM PTX) | viability at 15 µM (A2780 cells; [6]) | % Survival (individual sample) (A2780-ADR cells; [7]) | also measured
Cn1cnnc1SCc1c(C(=O)O)nnn1-c1nonc1N [Compound 59, Cn1cnnc1SCc1c(nnn1-c1nonc1N)C(O)=O] | 83.9% | 98% and 96% | 93.1% | No | 11.4% | 6% and 9% | 99% |  | viability at 15 µM (A2780-ADR cells; [4]): 95%
Nc1nonc1-n1nnc(C(=O)N/N=C/c2c3ccccc3cc3ccccc23)c1COc1ccc(F)cc1 [Compound 60, Nc1nonc1-n1nnc(C(=O)N\N=C\c2c3ccccc3cc3ccccc23)c1COc1ccc(F)cc1] |  |  |  | No |  |  |  |  | 
CCN1CCN(Cc2c(C(=O)N/N=C3/C(=O)N(C)c4ccccc43)nnn2-c2nonc2N)CC1 [Compound 61, CCN1CCN(Cc2c(nnn2-c2nonc2N)C(=O)N\N=C2\C(=O)N(C)c3ccccc23)CC1] |  |  |  | No |  |  |  |  | 
O=C(c1cc2ccccc2[nH]1)N1CCN(S(=O)(=O)c2cccc3nonc23)CC1 [Compound 66, O=C(N1CCN(CC1)S(=O)(=O)c1cccc2nonc12)c1cc2ccccc2[nH]1] |  |  |  | No |  |  |  |  | 
O=C(c1nc(-c2ccc3cc[nH]c3c2)no1)N1CCN(c2nsc3ccccc23)CC1 [Compound 70, O=C(N1CCN(CC1)c1nsc2ccccc12)c1nc(no1)-c1ccc2cc[nH]c2c1] | 62.6% | 116% | 114% | Yes | 22.6% | 14% | 89.4% | 62% and 59% and 61% | Reversal of MDR in A2780-ADR cells (A2780-ADR cells): reversed MDR in A2780-ADR cells; Increase of PTX toxicity against parental A2780 cells (A2780 cells): did not greatly increase the toxicity of PTX against the parental A2780 cells; % Survival (individual sample) (A2780 cells; 15 µM compound alone): 88%
COc1ccc(OC)c(NC(=O)c2nnn(-c3ccc4noc(-c5ccccc5)c4c3)c2C)c1 [Compound 71, COc1ccc(OC)c(NC(=O)c2nnn(c2C)-c2ccc3noc(-c4ccccc4)c3c2)c1] |  |  |  | No |  |  |  |  | 
Cc1onc(-c2ccccc2)c1-c1nnc(Cn2cnc3c(oc4ccccc43)c2=O)o1 [Compound 78, Cc1onc(c1-c1nnc(Cn2cnc3c4ccccc4oc3c2=O)o1)-c1ccccc1] | 41.5% | 81% and 88% | 82.7% | Yes | 13.4% | 8% and 18% | 91.4% | 48% and 26% | Reversal of MDR in A2780-ADR cells (A2780-ADR cells): reversed MDR in A2780-ADR cells; Increase of PTX toxicity against parental A2780 cells (A2780 cells): did not greatly increase the toxicity of PTX against the parental A2780 cells; % Survival (individual sample) (A2780 cells; 15 µM compound alone): 110%
NS(=O)(=O)c1cccc(NC(=O)CSc2nnnn2C2CC2)c1 [Compound 89, NS(=O)(=O)c1cccc(NC(=O)CSc2nnnn2C2CC2)c1] | 74.6% | 90% and 86% | 89.9% | No | 10.3% | 8% and 12% | 87.9% | 54% | viability at 15 µM (A2780-ADR cells; [4]): 91%; % Survival (individual sample) (A2780 cells; 15 µM compound alone): 96%
O=S(=O)(CCSc1nnc(-c2ccccc2)c2ccccc12)c1ccccc1 [Compound 96, O=S(=O)(CCSc1nnc(-c2ccccc2)c2ccccc12)c1ccccc1] | 68.8% | 97% | 105% | Yes | 13.9% | 19% and 20% | 76.5% | 58% | Reversal of MDR in A2780-ADR cells (A2780-ADR cells): reversed MDR in A2780-ADR cells; Increase of PTX toxicity against parental A2780 cells (A2780 cells): did not greatly increase the toxicity of PTX against the parental A2780 cells
COc1ccc2c3c([nH]c2c1)[C@H](CC(C)C)N1C(=O)[C@H](CCC(=O)OC(C)(C)C)NC(=O)[C@@H]1C3 [Ko143, reference compound] |  |  |  |  |  |  |  |  | Mean % Survival (A2780-ADR cells; [8]): 77.3%; % Survival (individual sample) (A2780-ADR cells; A2780-ADR cells, 1 µM compound + 500 nM PTX, single samples (trials 1-3, samples 1-4)): 70% and 74% and 82% and 83% and 73% and 76% and 85% and 71% and 75% and 84%; Mean % Survival (A2780-ADR cells; A2780-ADR cells, 1 µM compound alone, mean of 12 samples): 102.8%; % Survival (individual sample) (A2780-ADR cells; A2780-ADR cells, 1 µM compound alone, single samples (trials 1-3, samples 1-4)): 103% and 101% and 106% and 119% and 127% and 112% and 96% and 91% and 87% and 92% and 99%; Mean % Survival (A2780 cells; [9]): 12.8%; % Survival (individual sample) (A2780 cells; 1 µM compound + 500 nM PTX): 16% and 15% and 9% and 49% and 7% and 8% and 10%; % Survival (individual sample) (A2780 cells; 1 µM compound alone): 88% and 85% and 84% and 87% and 89% and 40% and 99% and 90% and 97% and 92%; Mean % Survival (A2780 cells; mean of 12 samples): 85.3%
COc1cc2c(cc1OC)CN(CCc1ccc(NC(=O)c3cc(OC)c(OC)cc3NC(=O)c3cnc4ccccc4c3)cc1)CC2 [Tariquidar, reference compound] |  |  |  |  |  |  |  |  | Mean % Survival (A2780-ADR cells; [8]): 55.3%; % Survival (individual sample) (A2780-ADR cells; A2780-ADR cells, 1 µM compound + 500 nM PTX, single samples (trials 1-3, samples 1-4), listed as TQR): 58% and 59%; viability at 1 µM (A2780-ADR cells; Homo sapiens, A2780 ADR, A2780-ADR cells, 1 µM compound alone, mean of 12 samples, read-out: Mean % Survival): 91%; Mean % Survival (A2780 cells; [9]): 17.8%; % Survival (individual sample) (A2780 cells; 1 µM compound + 500 nM PTX, listed as TQR): 12%; viability at 1 µM (A2780 cells; Homo sapiens, A2780, A2780 cells, 1 µM compound alone, mean of 12 samples, read-out: Mean % Survival): 106%
